Assay [1] has as its system NuRD complex member mRNA. In words: mRNA expression of NuRD complex members (RNAseq). Format: cell-based, human. The protocol: FIG. 7B is a scatter plot representation of protein abundance changes caused by BPK-25 (10 μM, 24 h) in two independent replicate experiments, with decreases in NuRD complex components highlighted in red. FIG. 7C is a heatmap of top proteins with decreased abundance in BPK-25-treated T cells showing that the subset of these proteins in the NuRD complex (asterisks) were largely unaltered by other active compounds and blocked in their degradation by co-treatment with the proteasome inhibitor MG132. […] FIG. 7E is a bar graph […] showing time-dependent reductions in NuRD complex members in human T cells treated with BPK-25 (10 μM). Left, representative western blots. Right, quantification of changes in protein. […] FIG. 7G is a heat map showing the changes in cysteine reactivity for NuRD complex members in human T cells treated with BPK-25 and other active compounds. […]
RNA quality was assessed using TapeStation 4200 and RNA-Seq libraries were prepared using the TruSeq stranded mRNA Sample Preparation Kit v2 according to Illumina protocols. Multiplexed libraries were validated using TapeStation 4200, normalized, pooled and quantified by qPCR for sequencing. […]
Sequenced reads were quality-tested using FASTQC Andrews S. (2010). […] Mapping was carried out using default parameters (up to 10 mismatches per read, and up to 9 multi-mapping locations per read). […]

For assay [2], the target named is T1, TMEM173 (Homo sapiens, UniProt Q86WV6, G230A/H232R/R293Q/R71H).
T1 construct: endogenous in cells; host or cells: THP-1 Lucia ISG cells
T1 sequence (Q86WV6 whole entry R71H/G230A/H232R/R293Q): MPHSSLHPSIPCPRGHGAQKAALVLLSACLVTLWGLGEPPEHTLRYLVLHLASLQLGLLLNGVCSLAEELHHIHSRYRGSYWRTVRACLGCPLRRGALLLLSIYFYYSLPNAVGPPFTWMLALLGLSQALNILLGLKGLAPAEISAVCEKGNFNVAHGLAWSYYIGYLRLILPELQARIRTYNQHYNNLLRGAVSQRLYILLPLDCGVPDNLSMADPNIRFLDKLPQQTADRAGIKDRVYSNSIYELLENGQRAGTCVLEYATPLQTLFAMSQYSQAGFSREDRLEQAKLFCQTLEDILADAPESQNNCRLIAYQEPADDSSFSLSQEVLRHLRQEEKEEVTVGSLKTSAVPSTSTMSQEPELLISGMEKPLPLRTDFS
The assay is described as follows: ISRE-luciferase assay in THP-1 Lucia ISG cells. Format: cell-based. The conditions noted are these: 24 h. The protocol:
FIG. 12A is a pie chart showing the fraction of protein targets of active compounds with available crystal structures containing the corresponding liganded cysteine residues. FIG. 12B is a computer-generated model of BPK-21 and BPK-25 interactions with C91 of stimulator of interferon genes protein (STING, or TMEM173). FIG. 12C is a graph of IRF response of THP1-Lucia™ ISG cells. THP-1 Lucia ISG cells were treated with DMSO or BPK-25 in the presence of viral dsDNA (2 μg/mL) for 24 h and the levels of IRF-induced Lucia luciferase were determined using QUANTI-Luc™. Cell viability was measured using CellTiter-Glo™ assay. Luminescence signals for test samples were normalized to DMSO-treated samples and reported as relative light units (RLU)±SEM; n=3/group. […] Relative expression of IL-6, IL-1β, and IP10 (CXCL10) genes was measured by qPCR and normalized to actin. […] GFP-positive cells were further analyzed for CD25 and CD69 expression levels by measuring mean fluorescence intensity of the PE- (PE-CD25) and APC-channels (APC-CD69). […]
THP-1 Lucia ISG cells were resuspended in low-serum growth media (2% FBS) at a density of 5×10^5 cells/mL and treated with BPK-25 or vehicle (DMSO) in the presence of viral dsDNA (2 μg/mL). […] For each cell type and assay, luminescence signals for test article samples were normalized to vehicle-treated samples and reported as relative light units (RLU).

As for `C=CC(=O)N(Cc1cccc(Cl)n1)c1ccc(C(=O)Nc2ccccc2)nc1` [BPK-25], in assay [1], the “mRNA expression for NuRD complex members” value is listed as “not accompanied by corresponding changes in mRNA expression”. For the same molecule, in assay [2], the “TMEM173 activation in human monocyte cell line THP1” value is listed as “inhibited TMEM173 activation”.

The values above are taken from patent US20240131032A1, “AN ACTIVITY-GUIDED MAP OF ELECTROPHILE-CYSTEINE INTERACTIONS IN PRIMARY HUMAN IMMUNE CELLS” (The Scripps Research Institute, priority 2019, published 2024).
